From US20090192204A1, “N-(2-THIAZOLYL)-AMIDE DERIVATIVES AS GSK-3 INHIBITORS” (NOSCIRA, S.A., priority 2006, published 2009) come the findings set out here.

Usually remaining activity stands for the activity still measured, relative to the control.

One series concerns SH-SY5Y cells. As to the kind of experiment: Cell survival by LDH release in SH-SY5Y cells. In kind it is cell-based. The method, then: In addition to tau phosphorylation assays, quantification of cell death due to potential toxicity of compounds 1, 4, 5, 7, 8, 9, 10 and 11 described above is made by measuring LDH release (Roche, Cat 1 644 793). For the quantitative determination of cell survival, aliquots of the cell lysate are incubated with an equal volume of reaction mixture at room temperature for 20-30 min. The measure of absorbance is made in a microtiter plate reader with 490-492 nm filter (Cultek, Anthos 2010).
For compounds 4 and 5, the cell survival was measured at 24 hours treatment (see Table 2), and for compounds 1, 7, 8, 9, 10 and 11 was measured at 18 hours treatment (see Table 3), in SH-SY5Y cells. It is generally considered that a compound is considered toxic if less than 80% of the cells survive after treatment with a compound.

Series [1] concerns phosphorylated human Tau [pS396]. Nature of the series: Inhibition of tau phosphorylation in SHSY5Y cells (Tau [pS396] sandwich ELISA). In kind it is cell-based. On the set-up: key: “NEG” means no tau phosphorylation inhibition was detected at the referred concentration of compound (I); “POS” means that at the referred concentration tau phosphorylation inhibition was detected. Particulars: 18 h. The method, then: Human neuroblastoma SHSY5Y cells were seeded in the presence of Minimum Essential Medium/Nutrient Mixture F-12. One day later, cells are treated with samples for 18 h at 37° C. After treatment, cultures are washed with phosphate-buffered saline and lysed for 30 min at 4° C. in extraction buffer (10 mM Tris-HCl, pH 7.4, 100 mM NaCl, 1 mM EDTA, 2 mM Na3VO4, 1% Triton X-100, 10% glycerol, 0.1% SDS, 0.5% Sodium deoxycholate, 1 mM PMSF and a protease inhibitor cocktail (Roche, Cat 1 697 498)).
The quantitative determination of phosphorylated human Tau is made taking aliquots of the cell lysate and using a phosphorylation-specific antibody against Tau [pS396] in a sandwich ELISA (Biosource, Cat KHB7031). Tau phosphorylation is estimated by measuring the absorbance at 450 nm in a microtiter plate reader (Cultek, Anthos 2010).
The effect of the synthesized compounds according to examples 1-7 and that of another 6 compounds of formula (I) is determined at different final concentrations, namely 50, 100 and 200 μM. Not all the compounds of formula (I) were tested at all the concentrations. The results are indicated in Table 1 (see below) as “NEG” and “POS”, respectively meaning “negative” and “positive”; “NEG” means no tau phosphorylation inhibition was detected at the referred concentration of compound (I); “POS” means that at the referred concentration tau phosphorylation inhibition was detected.
In general terms: An ELISA detects its analyte on a solid surface through an enzyme-linked reagent.

Series [2] concerns the target T1, Recombinant human glycogen synthase kinase 3β (Homo sapiens, UniProt P49841).
T1 construct: purchased Upstate 14-306
Nature of the series: GSK-3β inhibition (radiometric kinase assay, GS-2 peptide, 33P-ATP). Type of series: biochemical. The note with it: 0.5 h, remaining GSK-3 activity; for remaining activity at 25 µM: compound 25 μM; for remaining activity at 50 µM: compound 50 μM. The method, then:
This assay is based on the protocol detailed by Upstate Cat. 14-306, making some slight modifications.
Recombinant human glycogen synthase kinase 3β is assayed in MOPS 11 mM pH7.4, EDTA 0.2 mM, EGTA 1.25 mM, MgCl2 26.25 mM and sodium orthovanadate 0.25 mM in the presence of 62.5 μM of Phospho-Glycogen Synthase Peptide-2 (GS-2) (TOCRIS, Cat. 1352), 0.5 μCi γ-^33P-ATP and unlabelled ATP (Sigma, A-9187) at a final concentration of 12.5 μM. After incubation for 30 minutes at 30° C., aliquots are spotted onto P81 phosphocellulose papers. Filters are washed four times for at least 10 minutes each with 1% phosphoric acid and counted with scintillation cocktail in a scintillation counter (PerkinElmer, Microbeta 1450). The activity of GSK-3 is tested at concentrations of 25 and 50 μM, in the presence of the compounds synthesized according to examples 1 to 7 and in the presence of another 6 compounds of formula (I).The results obtained are indicated in Table I (see below), in the form of percentage of GSK-3 activity.

SMILES strings stand for the structures.

T1 sequence (P49841 whole entry): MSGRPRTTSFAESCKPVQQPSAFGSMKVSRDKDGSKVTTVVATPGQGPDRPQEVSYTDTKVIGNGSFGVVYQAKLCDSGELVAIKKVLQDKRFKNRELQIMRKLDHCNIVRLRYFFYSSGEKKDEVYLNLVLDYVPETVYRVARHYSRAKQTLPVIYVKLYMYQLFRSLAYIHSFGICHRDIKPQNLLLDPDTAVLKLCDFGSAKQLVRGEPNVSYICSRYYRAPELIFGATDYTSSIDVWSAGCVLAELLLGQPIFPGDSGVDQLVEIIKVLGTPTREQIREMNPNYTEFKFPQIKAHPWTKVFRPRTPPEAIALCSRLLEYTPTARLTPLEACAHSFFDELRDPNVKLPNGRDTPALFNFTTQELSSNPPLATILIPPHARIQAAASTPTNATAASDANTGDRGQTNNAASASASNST

As to `O=C(CCc1c[nH]c2ccccc12)Nc1ncc([N+](=O)[O-])s1` [Compound 5], the “% of cell viability” value turned out to be 87.8 ± 3.8% with SH-SY5Y cells (10 μM, 24 hours treatment) and 86.1 ± 18.4% in the series on SH-SY5Y cells (25 μM, 24 hours treatment). In addition, the “Tau phosphorylation inhibition in cells” value in series [1] (50 μM), in series [1] (100 μM) and in series [1] (200 μM) was “POS” in each case. For the same compound, in series [2], the remaining activity at 25 µM is 19.1%. In series [2], the remaining activity at 50 µM worked out at 12.4%.
As for `O=C(CCCc1c[nH]c2ccccc12)Nc1ncc([N+](=O)[O-])s1` [Compound 1], the “% of cell viability” value with SH-SY5Y cells (50 μM, 18 hours treatment) stood at 103.2 ± 17%; with SH-SY5Y cells (100 μM, 18 hours treatment), 101.0 ± 17%. The “Tau phosphorylation inhibition in cells” value in series [1] (50 μM), in series [1] (100 μM) and in series [1] (200 μM) was “NEG” throughout. Further, the remaining activity at 25 µM in series [2] stood at 37.4%. In addition, the remaining activity at 50 µM in series [2] came to 18.9%.
`Cc1cnc(NC(=O)Cc2c[nH]c3ccccc23)s1` [Compound 12]: in series [2], the remaining activity at 25 µM was 49.1% and the remaining activity at 50 µM came out at 37.1%.
Consider `Cc1[nH]c2ccccc2c1CC(=O)Nc1ncc([N+](=O)[O-])s1` [Compound 9, 2-(2-Methyl-indol-3-yl)-N-(5-nitro-thiazol-2-yl)-acetamide], for which the “% of cell viability” value in the series with SH-SY5Y cells (50 μM, 18 hours treatment) was 91.6 ± 5.9%; in the series with SH-SY5Y cells (100 μM, 18 hours treatment), 90.8 ± 5.5%. Moreover, the “Tau phosphorylation inhibition in cells” value in series [1] (50 μM) and in series [1] (100 μM) was “POS” in each case. Further, the remaining activity at 25 µM in series [2] was determined as 7.96%. Besides, the remaining activity at 50 µM in series [2] worked out at 2.61%.
Regarding `O=C(Cc1c[nH]c2ccccc12)Nc1ncc([N+](=O)[O-])s1` [Compound 4, 2-(Indol-3-yl)-N-(5-nitro-thiazol-2-yl)-acetamide], the “% of cell viability” value in the series with SH-SY5Y cells (10 μM, 24 hours treatment) was 91.7 ± 1.9%; in the series on SH-SY5Y cells (25 μM, 24 hours treatment), 90 ± 3.7%. For the same compound, the “Tau phosphorylation inhibition in cells” value in series [1] (50 μM) was “NEG”; in series [1] (100 μM), “POS”; in series [1] (200 μM), “POS”. The remaining activity at 25 µM in series [2] worked out at 6.29%. The remaining activity at 50 µM in series [2] stood at 8.51%.
Consider `Cn1cc(CC(=O)Nc2ncc([N+](=O)[O-])s2)c2ccccc21` [Compound 8, 2-(1-Methyl-indol-3-yl)-N-(5-nitro-thiazol-2-yl)-acetamide], for which the “% of cell viability” value with SH-SY5Y cells (50 μM, 18 hours treatment) was 103 ± 7.7%; in the series on SH-SY5Y cells (100 μM, 18 hours treatment), 85.5 ± 6.5%. Besides, the “Tau phosphorylation inhibition in cells” value in series [1] (50 μM) and in series [1] (100 μM) was “POS” each time. Further, the remaining activity at 25 µM in series [2] stood at 17.8%. For the same compound, in series [2], the remaining activity at 50 µM was determined as 9.27%.
Regarding `O=C(Cc1c[nH]c2ccccc12)Nc1nccs1` [Compound 13], in series [2], the remaining activity at 25 µM is 70.9% and the remaining activity at 50 µM came to 42.7%.
With `COc1ccc2[nH]cc(CC(=O)Nc3ncc([N+](=O)[O-])s3)c2c1` [Compound 7, 2-(5-Methoxy-indol-3-yl)-N-(5-nitro-thiazol-2-yl)-acetamide], the “% of cell viability” value was 99.8 ± 8.6% in the series on SH-SY5Y cells (50 μM, 18 hours treatment) and 92.9 ± 11.1% in the series on SH-SY5Y cells (100 μM, 18 hours treatment). Moreover, the “Tau phosphorylation inhibition in cells” value in series [1] (50 μM) was “NEG”; in series [1] (100 μM), “POS”. Besides, the remaining activity at 25 µM in series [2] worked out at 43.9%. Further, the remaining activity at 50 µM in series [2] turned out to be 32.2%.
For the compound `O=C(Nc1ncc([N+](=O)[O-])s1)c1c[nH]c2ccccc12` [Compound 3], in series [2], the remaining activity at 25 µM was 73.8% and the remaining activity at 50 µM was 53.4%.
Turning to `O=C(CCCc1c[nH]c2ccccc12)Nc1nccs1` [Compound 2], in series [2], the remaining activity at 25 µM is 59.6% and the remaining activity at 50 µM worked out at 39%.
As to `O=C(Nc1ncc([N+](=O)[O-])s1)c1n[nH]c2ccccc12` [Compound 11, 1H-Indazole-3-carboxylic Acid (5-nitro-thiazol-2-yl)-amide], the “% of cell viability” value worked out at 95.3 ± 3.3% in the series with SH-SY5Y cells (50 μM, 18 hours treatment) and 93.9 ± 5.6% in the series on SH-SY5Y cells (100 μM, 18 hours treatment). Further, the “Tau phosphorylation inhibition in cells” value in series [1] (50 μM) and in series [1] (100 μM) was “NEG” each time. In addition, the remaining activity at 25 µM in series [2] worked out at 34.8%. In addition, in series [2], the remaining activity at 50 µM was found to be 18.2%.
On to `O=C(Cc1c[nH]c2ccccc12)Nc1ncc(Cl)s1` [Compound 6], for which, in series [2], the remaining activity at 25 µM was 29.4% and the remaining activity at 50 µM was 14.6%.
`COc1ccc2[nH]c(C(=O)Nc3ncc([N+](=O)[O-])s3)cc2c1` [Compound 10, 5-Methoxy-indole-2-carboxylic Acid (5-nitro-thiazol-2-yl)-amide]: the “% of cell viability” value in the series with SH-SY5Y cells (50 μM, 18 hours treatment) was 84.7 ± 2.7%; with SH-SY5Y cells (100 μM, 18 hours treatment) it was 90.6 ± 7.2%. Also, the “Tau phosphorylation inhibition in cells” value in series [1] (50 μM) and in series [1] (100 μM) was “POS” throughout. In series [2], the remaining activity at 25 µM turned out to be 18.9%. Besides, the remaining activity at 50 µM in series [2] was 11%.
